# Experimental data: patent US7368279B2, “Three dimensional bioengineered smooth muscle tissue and sphincters and methods therefor” (The Regents of The University of Michigan, priority 2004, dated 2008)
# “Also recorded” adds a separate entry of the source.
# Tested on: bioengineered IAS rings
# Experiment: Isometric force (contraction/relaxation) of bioengineered IAS rings
# Assay type: cell-based, rabbit
# Protocol: Excitability and contractility of bioengineered IAS rings was measured using techniques adapted from previous work (Dennis et al., In Vitro Cellular & Developmental Biology Animal 36: 327-335, 2000. Dennis et al., American Journal of Physiology Cell Physiology 280: C288-C295, 2001). The diameter of the sphincter rings was measured and used to calculate cross-sectional area (CSA). The bioengineered sphincters were separated from their molds using forceps (FIG. 1 Panel E) and the minimum ring diameter was measured using a calibrated eyepiece and a 5× or 10× objective lens on an inverted microscope (Zeiss Axiovert 25, Thornwood, N.Y.). The cross section was circular, and therefore the CSA was calculated using the measured diameter. To measure the passive baseline force, the differentiation media in the plate containing the bioengineered sphincter was replaced with 37° C. Krebs solution (NaCl (119 mM), KCl (4.6 mM), NaHCO3 (15 mM), CaCl2 (1.5 mM), MgCl2 (1.2 mM), […], and glucose (11 mM)) and the plate was placed on a heated aluminum platform, which maintained a temperature of 37° C. until the testing was complete. For contractility measurements, one end of the bioengineered sphincter was anchored by a stainless steel pin (10 mm×0.1 mm diameter) to the PDMS substrate within the plate, while another stainless steel pin was bent in the shape of a hook and attached by canning wax to a force transducer (resolution of 1.4 μN and range of 2mN) as previously described (Dennis et al., In Vitro Cellular & Developmental Biology Animal 36: 327-335, 2000, Macpherson et al., J Physiol 500: 523-533, 1997) and as depicted in FIG. 1 (Panels F and G). The bioengineered sphincter was stretched approximately 50% of its resting length using a three-axis micromanipulator. The ring was allowed to sit for 20 minutes in order to reestablish a stable baseline level of force (Pb), which was measured as the average baseline passive force preceding stimulation. All force measurements were collected at 100 samples/second for 60 seconds and recorded using a computer with LabVIEW data acquisition software (National Instruments, Austin, Tex.). A median filter of rank 2 was applied to all raw force data before being stored to minimize digitization noise without causing a phase delay for rapidly changing forces. The peak isometric force (ΔP) was determined by subtracting the Pb from the total force values. Specific force (sΔP) was calculated by dividing ΔP by the CSA. Data analysis was done using LabVIEW and Microsoft Excel software programs. Each measurement was repeated at least three times and the mean value was recorded. Contractions were induced in the rings by the addition of acetylcholine. Dose-response relationships of acetylcholine were investigated in the range of 10^−6M to 10^−10M. Incremental doses of acetylcholine were added after the maximal response of the preceding concentration and the establishment of a new baseline. Relaxation response in the rings was induced by the addition of 8-Bromoadenosine 3′:5′-Cyclic Monophosphate (8-br-cAMP). Maximal relaxation was achieved after approximately 4 minutes and therefore relaxation measurements are collective of four consecutive 1-minute data recordings.
smiles,measurement,setting,value
"Nc1ncnc2c1nc(Br)n2[C@@H]1O[C@@H]2COP(=O)(O)O[C@H]2[C@H]1O [8-br-cAMP, 8-Bromoadenosine 3′:5′-Cyclic Monophosphate]",relaxation of acetylcholine-induced contraction,"10^−5 M 8-br-cAMP added after 10^−6 M acetylcholine, Krebs buffer",rapid relaxation; also recorded: immediate relaxation
same,ΔP (relaxation response),"10^−5 M 8-br-cAMP, 4 minutes, 0 Ca2+/2 mM EGTA Krebs",−23±4 μN
same,average ΔP (relaxation from basal tone),"10^−5 M 8-br-cAMP, 4 minutes, Krebs buffer",−16.3±2.0 μN
